Results from BindingDB's records for doi:10.7270/Q2RB7317 (Nmmlsc, 2009).

Each molecule was assayed against Ras-related C3 botulinum toxin substrate 1 (Mus musculus, UniProt P63001) (assay: analog inhibition of wildtype Rac1 nucleotide loading – biochemical, additional analogs, multiplex bead flow cytometry, SAR follow-up (AID 2040)).
`O=C1NC(=S)N/C1=C1\C(=O)Nc2ccccc21` [(3Z)-3-(5-oxo-2-sulfanylideneimidazolidin-4-ylidene)-1H-indol-2-one] gave a Ki of 160 nM. `O=C1Nc2c(F)cccc2C1=C1Nc2ccccc2C1=O` gave a Ki of 3230 nM. Work on `O=C1NC(=O)/C(=C2/C(=O)Nc3ccccc32)N1` yielded a Ki of 250 nM. With `O=C1Nc2ccc(Br)cc2C1=C1Nc2ccccc2C1=O` the Ki was 1510 nM.
